From US6365594B1, “Heterocycle-condensed morphinoid derivatives (II)” (SmithKline Beecham S.p.A., priority 1996, dated 2002)
Structures can show the parent of a compound that is named as a salt.

Assays:
mu opioid receptor = target: T1, mu opioid receptor (Mus musculus, UniProt P42866); assay: radioligand binding, mu ligand [3H]-DAMGO, mouse brain membranes; conditions: selectivity ratio
T1 construct: Mouse brain membranes were prepared as described by Kosterlitz; from tissue; host or cells: mouse brain membranes
Procedure: (§1) The activity of the compounds of the present invention as selective delta ligands is determined in radioligand binding assays as described below.
(§2) Mouse brain membranes were prepared as described by Kosterlitz (Br. J. Pharmacol., 1981, 73, 939.). The binding of the preferential delta ligand [^3H]-[D-Ala^2,D-Leu^5]-enkephalin (DADLE) was evaluated at its KD concentration (1.3 nM) in presence of 40 nM of the unlabelled mu ligand [D-Ala^2, MePhe^4, Gly-ol^5]-enkephalin (DAMGO). The binding of the mu ligand [^3H]-DAMGO (Eur. J. Pharmacol., 1989, 166, 213) and of the kappa ligand [^3H]-U69593 (Excerpta Medica, 1990, 211) were carried out at 0.5 nM. The non-specific binding was determined in presence of naloxone (10 μM) for all tritiated ligands. Binding data were expressed as percentage of inhibition and fitted the following equation: f(x)=100·X/(IC50+X) where X are cold drug concentration values. The IC50 obtained were used to calculate the inhibitory constants (Ki) accordingly to the Cheng and Prusoff relation (Biochem. Pharmacol., 1973, 22, 3099).

kappa opioid receptor = target: T2, kappa opioid receptor (Mus musculus, UniProt P33534); assay: radioligand binding, kappa ligand [3H]-U69593, mouse brain membranes; conditions: selectivity ratio
T2 construct: Mouse brain membranes were prepared as described by Kosterlitz; from tissue; host or cells: mouse brain membranes
Procedure: as §1, §2

delta receptor = target: T3, delta receptor (Mus musculus, UniProt P32300); assay: cAMP bioassay in NG108-15 cells (inhibition of forskolin-stimulated cAMP); format: cell-based
T3 construct: endogenous in cells; host or cells: NG108-15 cells
Procedure: The delta agonistlantagonist activity of the compounds of the present invention is determined in the cAMP bioassay in NG108-15 cell lines as described below.
NG 108-15 cell were grown at 37° C. in humidified atmosphere of 5% CO2 and 95% air in DMEM (without sodium pyruvate using 4500 mg/l glucose) supplemented with 10% foetal calf serum containing 2 mM glutamine, 2% HAT×50 supplement, 50 μg streptomycin and 50 I.U. penicillin per ml confluent cells were harvested with […] in Ca/Mg-free phosphate-buffered saline with mechanical stiring. Medium was replaced every 2 day. One day before the experiment the cells were dispensed in 17 mm culture plate (about 10×10^6 cells/plate). After 1 day, the growth medium was removed and cells washed twice with a modified Krebs-Ringer medium buffered with hepes-NaOH 200 mM, pH 7.4, that contained (mmol/l): NaCl (125), KCl (5), KH2PO4 (0.4), MgSO4 and CaCl2 (1.2) NaHCO3 (25), glucose (12). Incubation medium was also including 1 mM 3-isobuthyl-1-methylxantine (IBMX). Experiments were performed at room temperature. After incubation for 10 minutes to allow IBMX incorporation, NG108-15 cells were exposed to 1 μM forskolin and the compound to be tested, for 10 minutes. […] The pellets from the original plates were dissolved in NaOH 0.5N and the protein content was determined with the method described by Bradfort (Anal. Biochem. 1976, 72, 248). […]

T3 sequence (P32300 whole entry): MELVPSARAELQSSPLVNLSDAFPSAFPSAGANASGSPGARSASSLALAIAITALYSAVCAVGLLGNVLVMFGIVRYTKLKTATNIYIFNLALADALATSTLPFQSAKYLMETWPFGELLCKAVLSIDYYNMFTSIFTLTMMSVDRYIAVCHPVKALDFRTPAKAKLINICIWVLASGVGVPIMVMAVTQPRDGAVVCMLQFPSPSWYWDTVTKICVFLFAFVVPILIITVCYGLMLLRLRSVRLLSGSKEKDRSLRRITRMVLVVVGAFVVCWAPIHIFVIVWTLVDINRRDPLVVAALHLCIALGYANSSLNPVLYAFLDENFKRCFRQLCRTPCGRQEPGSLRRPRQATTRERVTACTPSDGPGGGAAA
T1 sequence (P42866 whole entry): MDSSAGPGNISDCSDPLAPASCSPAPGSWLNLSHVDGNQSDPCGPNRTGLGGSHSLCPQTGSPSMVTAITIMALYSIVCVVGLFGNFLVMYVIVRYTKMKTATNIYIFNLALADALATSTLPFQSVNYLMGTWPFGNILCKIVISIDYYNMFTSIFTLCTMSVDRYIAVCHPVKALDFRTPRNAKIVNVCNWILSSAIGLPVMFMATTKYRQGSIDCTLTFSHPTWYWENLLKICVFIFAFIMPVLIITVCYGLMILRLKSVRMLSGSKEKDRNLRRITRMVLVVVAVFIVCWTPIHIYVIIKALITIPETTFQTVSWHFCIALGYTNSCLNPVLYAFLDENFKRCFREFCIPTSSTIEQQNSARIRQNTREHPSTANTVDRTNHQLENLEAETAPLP
T2 sequence (P33534 whole entry): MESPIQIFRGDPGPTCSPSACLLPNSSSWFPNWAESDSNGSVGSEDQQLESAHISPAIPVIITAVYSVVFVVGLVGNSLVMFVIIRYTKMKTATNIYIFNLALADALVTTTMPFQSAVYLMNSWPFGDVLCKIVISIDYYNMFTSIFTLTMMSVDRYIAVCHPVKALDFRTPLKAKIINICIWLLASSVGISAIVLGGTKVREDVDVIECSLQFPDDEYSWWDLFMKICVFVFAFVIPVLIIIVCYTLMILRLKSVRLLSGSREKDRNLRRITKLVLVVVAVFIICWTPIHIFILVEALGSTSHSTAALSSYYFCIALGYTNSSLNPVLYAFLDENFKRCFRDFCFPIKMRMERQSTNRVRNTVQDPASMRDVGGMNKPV

Structure (SMILES) | Ki mu/Ki delta (mu opioid receptor) | melting point | Ki kappa/Ki delta (kappa opioid receptor) | IC50 (delta receptor) | antagonism of the agonist activity by the selective delta antagonist naltrindole (delta receptor; NG108-15 cells, naltrindole 100 nM)
CCOC(=O)c1[nH]c2c(c1C(F)(F)F)C[C@H]1[C@H]3Cc4ccc(OC)c5c4[C@@]1(CCN3C)[C@H]2O5 [Example 10] | 840 | 174 °C | 600 |  | 
COc1ccc2c3c1O[C@H]1c4[nH]c(C(=O)N(Cc5ccccc5)C(C)C)c(C)c4C[C@H]4[C@@H](C2)N(C)CC[C@]314 [Example 1, [R-(4bS*,8α,s8aβp,12βp)]11(N-N-benzylN-isopropylaminocarbonyl)-7,10dimethyl-1-methoxy-5,6,7,8,12,12b-hexahydro-(9H){4,8methanobenzofuro[3,2]pyrrolo[2,3-g]soquinoline hydrochloride] |  |  |  | 15 nM | completely antagonised
